In experiment [1] the test system is S. aureus JE2 (wild type). Briefly: microbe, parasite or virus in culture. Conditions: Etest on TSA, 37°C, 22 h. From the text: (§1) Staphylococcus aureus is intrinsically resistant to the clinically approved cationic antimicrobial peptides polymyxin B (PMB) and colistin ([1], [16]). […] The MIC for PMB was subsequently determined using Etests for the identified mutants.
(§2) The strains used in this study include S. aureus strain JE2 (plasmid-cured derivative of USA300 LAC) and all derivative strains within the Nebraska Transposon Mutant Library (NTML), consisting of 1,920 unique transposon mutants with inactivation of nonessential genes ([15]). The bursa aurealis transposon used to create the collection contains the resistance cassette ermB, which confers resistance to erythromycin ([15]). Additionally we used S. aureus SA113 and two derivatives, SA113 ΔdltA ([9]) and SA113 ΔmprF ([10]). All bacterial strains were cultured at 37°C in tryptic soy broth (TSB) or on tryptic soy agar (TSA), with antimicrobial agents added as indicated. Two methods have been employed to determine MICs to various antimicrobial agents. (i) A 2-fold broth microdilution assay in TSB (100 µl) with an initial inoculum of approximately 5 × 10^5 cells/ml was employed to determine the MICs of polymyxin B sulfate (Sigma), gallidermin (Santa Cruz Biotechnology), nisin (Sigma), bacitracin (Sigma), and LL-37 (Isca Biochemicals). […] The MIC was determined upon incubation at 37°C for 22 h. […]

The subject of experiment [2] is S. aureus JE2 atpA transposon mutant (SAUSA300_2060). Briefly: microbe, parasite or virus in culture. The note with it: Etest on TSA, 37°C, 22 h, atpA mutant.
Text: as §1, §2

The subject of experiment [3] is S. aureus JE2 graR transposon mutant (SAUSA300_0645). The experiment in a line: microbe, parasite or virus in culture. Conditions: Etest on TSA, 37°C, 22 h, graR mutant.
Text: as §1, §2

Experiment [4] concerns S. aureus JE2 vraF transposon mutant (SAUSA300_0647). The experiment in a line: microbe, parasite or virus in culture. Conditions: Etest on TSA, 37°C, 22 h, vraF mutant.
Text: as §1, §2

In experiment [5] the test system is S. aureus JE2 vraG transposon mutant (SAUSA300_0648). Briefly: microbe, parasite or virus in culture. Conditions: Etest on TSA, 37°C, 22 h, vraG mutant.
Text: as §1, §2

The subject of experiment [6] is S. aureus JE2 atpB transposon mutant (SAUSA300_2064). Type of experiment: cell-based, Staphylococcus aureus. Conditions: Etest on TSA, 37°C, 22 h; atpB mutant. From the text:
(§3) Staphylococcus aureus is intrinsically resistant to the clinically approved cationic antimicrobial peptides polymyxin B (PMB) and colistin ([1], [16]). […] The MIC for PMB was subsequently determined using Etests for the identified mutants. Nineteen mutants were confirmed to be at least 2-fold more susceptible than the WT (Table 1). As expected, we identified transposon insertions in graS, graR, vraF, and vraG, corroborating previous work on these determinants in S. aureus in relation to increased PMB susceptibility ([12]).
(§4) The strains used in this study include S. aureus strain JE2 (plasmid-cured derivative of USA300 LAC) and all derivative strains within the Nebraska Transposon Mutant Library (NTML), consisting of 1,920 unique transposon mutants with inactivation of nonessential genes ([15]). The bursa aurealis transposon used to create the collection contains the resistance cassette ermB, which confers resistance to erythromycin ([15]). Additionally we used S. aureus SA113 and two derivatives, SA113 ΔdltA ([9]) and SA113 ΔmprF ([10]). All bacterial strains were cultured at 37°C in tryptic soy broth (TSB) or on tryptic soy agar (TSA), with antimicrobial agents added as indicated. Two methods have been employed to determine MICs to various antimicrobial agents. (i) A 2-fold broth microdilution assay in TSB (100 µl) with an initial inoculum of approximately 5 × 10^5 cells/ml was employed to determine the MICs of polymyxin B sulfate (Sigma), gallidermin (Santa Cruz Biotechnology), nisin (Sigma), bacitracin (Sigma), and LL-37 (Isca Biochemicals). (ii) An Etest (BioMérieux) performed on TSA plates was employed to determine MICs for polymyxin B, colistin, ciprofloxacin, oxacillin, linezolid, gentamicin, vancomycin, and daptomycin. The MIC was determined upon incubation at 37°C for 22 h. When indicated, the Etest (BioMérieux) was performed on Mueller-Hinton agar plates (cation adjusted for calcium and magnesium).

Experiment [7] concerns S. aureus JE2 atpG transposon mutant (SAUSA300_2059). Type of experiment: cell-based, Staphylococcus aureus. Conditions: Etest on TSA, 37°C, 22 h; atpG mutant.
Text: as §3, §4

The test system of experiment [8] is S. aureus JE2 atpH transposon mutant (SAUSA300_2061). Type of experiment: cell-based, Staphylococcus aureus. Conditions: Etest on TSA, 37°C, 22 h; atpH mutant.
Text: as §3, §4

For experiment [9], the system named is S. aureus JE2 cbiO transposon mutant (SAUSA300_2176). The experiment is classed as cell-based, Staphylococcus aureus. Conditions: Etest on TSA, 37°C, 22 h.
Text: as §3, §4

Experiment [10] relates to S. aureus JE2 graS transposon mutant (SAUSA300_0646). Type of experiment: cell-based, Staphylococcus aureus. Conditions: Etest on TSA, 37°C, 22 h; graS mutant.
Text: as §3, §4

The test system of experiment [11] is S. aureus JE2 lspA transposon mutant (SAUSA300_1089). The experiment is classed as cell-based, Staphylococcus aureus. Conditions: Etest on TSA, 37°C, 22 h.
Text: as §3, §4

For experiment [12], the system named is S. aureus JE2 transposon mutant SAUSA300_0918 (diacylglycerol glucosyltransferase). The experiment is classed as cell-based, Staphylococcus aureus. The note with it: Etest on TSA, 37°C, 22 h.
Text: as §3, §4

The subject of experiment [13] is S. aureus JE2 transposon mutant SAUSA300_0980 (hypothetical protein). The experiment is classed as cell-based, Staphylococcus aureus. The note with it: Etest on TSA, 37°C, 22 h.
Text: as §3, §4

The subject of experiment [14] is S. aureus JE2 transposon mutant SAUSA300_1254 (hypothetical protein). Type of experiment: cell-based, Staphylococcus aureus. The note with it: Etest on TSA, 37°C, 22 h.
Text: as §3, §4

The test system of experiment [15] is S. aureus JE2 transposon mutant SAUSA300_1495 (hypothetical protein). The experiment is classed as cell-based, Staphylococcus aureus. The note with it: Etest on TSA, 37°C, 22 h.
Text: as §3, §4

Experiment [16] relates to S. aureus JE2 transposon mutant SAUSA300_1785 (putative ABC transporter protein EcsB). Type of experiment: cell-based, Staphylococcus aureus. Conditions: Etest on TSA, 37°C, 22 h.
Text: as §3, §4

Experiment [17] relates to S. aureus JE2 transposon mutant SAUSA300_1802 (hypothetical protein). Type of experiment: cell-based, Staphylococcus aureus. Conditions: Etest on TSA, 37°C, 22 h.
Text: as §3, §4

The subject of experiment [18] is S. aureus JE2 trkA transposon mutant (SAUSA300_0988). The experiment is classed as cell-based, Staphylococcus aureus. The note with it: Etest on TSA, 37°C, 22 h.
Text: as §3, §4

Experiment [19] concerns S. aureus JE2 vraS transposon mutant (SAUSA300_1866). Type of experiment: cell-based, Staphylococcus aureus. Conditions: Etest on TSA, 37°C, 22 h.
Text: as §3, §4

Experiment [20] concerns S. aureus JE2 yajC transposon mutant (SAUSA300_1594). Type of experiment: cell-based, Staphylococcus aureus. The note with it: Etest on TSA, 37°C, 22 h.
Text: as §3, §4

The test system of another experiment is S. aureus JE2 (WT). The experiment is classed as cell-based, Staphylococcus aureus. Conditions: 2-fold broth microdilution in TSB (100 µl), inoculum approx. 5 × 10^5 cells/ml, 37°C, 22 h.
Text: as §4
For orientation: Broth dilution looks for growth in wells or tubes with falling amounts of substance.

For experiment [21], the system named is S. aureus JE2 atpA mutant. Type of experiment: cell-based, Staphylococcus aureus. Conditions: 2-fold broth microdilution in TSB (100 µl), inoculum approx. 5 × 10^5 cells/ml, 37°C, 22 h.
Text: as §4

Experiment [22] has as its system S. aureus JE2 graR mutant. The experiment is classed as cell-based, Staphylococcus aureus. Conditions: 2-fold broth microdilution in TSB (100 µl), inoculum approx. 5 × 10^5 cells/ml, 37°C, 22 h; graR mutant.
Text: as §4

The test system of experiment [23] is S. aureus JE2 vraF mutant. Type of experiment: cell-based, Staphylococcus aureus. Conditions: 2-fold broth microdilution in TSB (100 µl), inoculum approx. 5 × 10^5 cells/ml, 37°C, 22 h; vraF mutant.
Text: as §4

Experiment [24] concerns S. aureus JE2 vraG mutant. The experiment is classed as cell-based, Staphylococcus aureus. Conditions: 2-fold broth microdilution in TSB (100 µl), inoculum approx. 5 × 10^5 cells/ml, 37°C, 22 h.
Text: as §4

[25] abbreviates: conventional antibiotics (Table 3).

Converted amounts (≈) assume the structure as drawn. Bridge positions count the residues as written; N and C are the ends. Square brackets hold non-standard residues; d marks the D form. Peptide text beside a SMILES is read from it. * marks the point of attachment. Ileψ(thiazoline)Cys = CC[C@H](C)[C@H](N)C1=N[C@H](C(=O)*)CS1; dOrn = NCCC[C@@H](N)C(=O)O; X1 = CC[C@H](C)CCCCC(=O)*; Dab = NCC[C@H](N)C(=O)O

`CC[C@H](C)CCCCC(=O)N[C@@H](CCN)C(=O)N[C@H](C(=O)N[C@@H](CCN)C(=O)N[C@H]1CCNC(=O)[C@H]([C@@H](C)O)NC(=O)[C@H](CCN)NC(=O)[C@H](CCN)NC(=O)[C@H](CC(C)C)NC(=O)[C@@H](CC(C)C)NC(=O)[C@H](CCN)NC1=O)[C@@H](C)O` [Colistin, colistin] (X1-[Dab]T[Dab][Dab][Dab][dL]L[Dab][Dab]T; lactam 4-C (inferred); N-terminus assumed): the MIC in [1] (wild type S. aureus JE2) was more than 256 µg/mL; in experiment [2], 48 µg/mL (≈ 41 µM); in [3] it was 32 µg/mL (≈ 27.4 µM); in experiment [4] it was 32 µg/mL (≈ 27.4 µM); in [5], 24 µg/mL (≈ 20.5 µM); in [6], 48 µg/mL (≈ 41 µM). Moreover, the MIC is 48 µg/mL (≈ 41 µM) in [7]; 48 µg/mL (≈ 41 µM) in [8]; 64 µg/mL (≈ 54.7 µM) in experiment [9]; 32 µg/mL (≈ 27.4 µM) in [10]; 256 µg/mL (≈ 219 µM) in [11]; more than 256 µg/mL in experiment [12]. Also, the MIC in [13] is more than 256 µg/mL; in experiment [14], 192 µg/mL (≈ 164 µM); in experiment [15], more than 256 µg/mL; in experiment [16] it was more than 256 µg/mL; in experiment [17], more than 256 µg/mL; in [18], 128 µg/mL (≈ 109 µM). Moreover, the MIC in [19] and in experiment [20] was 256 µg/mL (≈ 219 µM) each time.
Turning to `CC[C@H](C)[C@H](N)C1=N[C@H](C(=O)N[C@@H](CC(C)C)C(=O)N[C@H](CCC(=O)O)C(=O)N[C@H](C(=O)N[C@H]2CCCCNC(=O)[C@H](CC(N)=O)NC(=O)[C@@H](CC(=O)O)NC(=O)[C@H](Cc3cnc[nH]3)NC(=O)[C@@H](Cc3ccccc3)NC(=O)[C@H]([C@@H](C)CC)NC(=O)[C@@H](CCCN)NC2=O)[C@@H](C)CC)CS1` [Bacitracin, bacitracin] ({Ileψ(thiazoline)Cys}-L[dE]IK[dOrn]I[dF]H[dD]N; lactam 4-C (inferred); N-terminus assumed), the “MIC, WT” value with S. aureus JE2 (WT) came to 256 µg/mL (≈ 180 µM). Moreover, in experiment [21], the “MIC, atpA” value came to 128 µg/mL (≈ 90 µM). In addition, the “MIC, graR” value in experiment [22] was 128 µg/mL (≈ 90 µM). Further, the “MIC, vraF” value in experiment [23] came to 256 µg/mL (≈ 180 µM). In addition, the “MIC, vraG” value in experiment [24] was 256 µg/mL (≈ 180 µM).
In the case of `CCCCCCCCCC(=O)N[C@@H](Cc1c[nH]c2ccccc12)C(=O)N[C@H](CC(N)=O)C(=O)N[C@@H](CC(=O)O)C(=O)N[C@@H]1C(=O)NCC(=O)N[C@@H](CCCN)C(=O)N[C@@H](CC(=O)O)C(=O)N[C@H](C)C(=O)N[C@@H](CC(=O)O)C(=O)NCC(=O)N[C@H](CO)C(=O)N[C@@H]([C@H](C)CC(=O)O)C(=O)N[C@@H](CC(=O)c2ccccc2N)C(=O)O[C@@H]1C` [Daptomycin, daptomycin], in [1] (conventional antibiotics (Table 3), WT JE2), the “MIC, WT” value is 0.25 µg/mL (≈ 0.154 µM). Besides, the “MIC, atpA” value in [2] (setting [25]) turned out to be 0.250 µg/mL (≈ 0.154 µM). The “MIC, graR” value in [3] (setting [25]) came to 0.19 µg/mL (≈ 0.117 µM). Besides, in experiment [4] (setting [25]), the “MIC, vraF” value is 0.25 µg/mL (≈ 0.154 µM). Also, in experiment [5] (setting [25]), the “MIC, vraG” value worked out at 0.25 µg/mL (≈ 0.154 µM).

(Values after PMC5587909, “Inhibition of the ATP Synthase Eliminates the Intrinsic Resistance of Staphylococcus aureus towards Polymyxins” (mBio, 2017).)
